IC50 and inhibition data for twelve molecules are collected here from US20130324542A1, “[1,2,4]TRIAZOLO[4,3-B][1,2,4]TRIAZINE COMPOUNDS, PREPARATION METHOD AND USE THEREOF” (SHANGHAI INSTITUTE OF MATERIA MEDICA, CHINESE ACADEMY OF …, priority 2010, published 2013).

Assay [1] has as its target c-Met tyrosine kinase (Homo sapiens, UniProt P08581). Kind of assay: c-Met kinase activity on molecular level (ELISA, Poly(Glu,Tyr)4:1 substrate). The note with it: ATP 5 μM, 37° C., 1 h. Format: biochemical. As to the method:
Poly(Glu, Tyr)4:1 as an enzyme substrate was diluted by potassium ion-free PBS (10 mM, sodium phosphate buffer, 150 mM NaCl, pH7.2-7.4) into a solution of 20 μg/ml. […] After the liquid in wells was removed, the plate was washed three time by T-PBS (PBS solution containing 0.1% Tween-20) at 200 μl/well, 5 min for each time. The ELISA plate was then dried in an oven at 37° C. for 1-2 h.
Each well was added with 50 μL of ATP solution diluted by reaction buffer (50 mM HEPES pH 7.4, 50 mM MgCl2, 0.5 mM MnCl2, 0.2 mM Na3VO4, 1 mM DTT) at a final concentration of 5 μM. Compound diluted by 1% DMSO into a suitable concentration was added at 10 μl/well and then c-Met tyrosine kinase protein diluted by 40 μl of reaction buffer was added. The plate was placed on a shaking table (100 rpm) at 37° C. and incubated for 1 h, and then washed three times by T-PBS. For each assay, triplicate wells without enzyme were used as blank control and wells having the corresponding DMSO concentration without compound were used as negative control. Primary antibody PY99 (p-Tyr (PY99), Cell Signaling Technology, 1:1000 diluted in 5 mg/mL BSA T-PBS) was added at 100 μl/well. The plate was then placed on a shaking table at 37° C. and incubated for 0.5 h, and washed by T-PBS. Secondary antibody horseradish peroxidase-conjugated goat anti-mouse IgG (1:2000 diluted in 5 mg/mL BSA T-PBS) was added at 100 μl/well. The plate was then placed on a shaking table at 37° C. for 0.5 h and washed three times by T-PBS. 2 mg/mL of OPD developer (diluted by a 0.1M citric acid-sodium citrate buffer (pH=5.4) containing 0.03% of H2O2) was added at 100 μl/well, and the plate was kept in dark at 25° C. for 1-10 min. OPD was ultrasonically dissolved and the developer solution was prepared just before use. 2 M of H2SO4 was added at 50 μl/well to stop the reaction. The plate was read using a wavelength regulated multi-well spectrophotometer (SPECTRA MAX 190) at 490 nm.
The inhibition rate was calculated according to the following equation:
Inhibition rate (%)=(1−(ODcompound−ODblank)/(ODnegative−ODblank))×100%
IC50 value was calculated through a four-parameter fit according to the inhibition curve.

The test system of assay [2] is NIH3T3/TPR-Met cells. The assay is described as follows: Cell proliferation mediated by c-Met, SRB assay, NIH3T3/TPR-Met cells. Format: cell-based. The note with it: Mus musculus, NIH3T3, 72 h, read-out: inhibition rate (%) on proliferation of NIH3T3/TPR-Met cells. How it is done:
Three concentrations were set, and for each concentration, the test was carried out in triplicate wells. 72 h later, the culture medium was removed. The residue was fixed by precooled 10% TCA at 4° C. for 1 h, washed by distilled water for 5 times and dried at room temperature. […] The excess dye was removed by washed with 1% glacial acetic acid for 5 times and dried in air. At last, 150 μL of Tris-HCL solution (10 mM Tris, pH 10.0) was added to each well.

The test system of assay [3] is NIH3T3 background cells. Kind of assay: Cell proliferation, SRB assay, NIH3T3 background cells as control. Format: cell-based. The following applies: Mus musculus, NIH3T3, 72 h, read-out: inhibition rate (%) on proliferation of NIH3T3 background cells. How it is done: NIH3T3/TPR-Met cells in the logarithmic growth phase and NIH3T3 background cells were seeded in a 96-well microcuture plate at 90111_, per well and cultivated overnight, followed by addition of 104 of the compound at different concentrations. Three concentrations were set, and for each concentration, the test was carried out in triplicate wells. 72 h later, the culture medium was removed. The residue was fixed by precooled 10% TCA at 4° C. for 1 h, washed by distilled water for 5 times and dried at room temperature. After that, 4 mg/mL of sulforodamine B (SRB) in 1% glacial acetic acid was added to each well (1004 per well) for staining at room temperature for 15 min. The excess dye was removed by washed with 1% glacial acetic acid for 5 times and dried in air. At last, 150 μL of Tris-HCL solution (10 mM Tris, pH 10.0) was added to each well. OD values were measured on a multi-well spectrophotometer at […].

c-Met tyrosine kinase, sequence (P08581 25-1390): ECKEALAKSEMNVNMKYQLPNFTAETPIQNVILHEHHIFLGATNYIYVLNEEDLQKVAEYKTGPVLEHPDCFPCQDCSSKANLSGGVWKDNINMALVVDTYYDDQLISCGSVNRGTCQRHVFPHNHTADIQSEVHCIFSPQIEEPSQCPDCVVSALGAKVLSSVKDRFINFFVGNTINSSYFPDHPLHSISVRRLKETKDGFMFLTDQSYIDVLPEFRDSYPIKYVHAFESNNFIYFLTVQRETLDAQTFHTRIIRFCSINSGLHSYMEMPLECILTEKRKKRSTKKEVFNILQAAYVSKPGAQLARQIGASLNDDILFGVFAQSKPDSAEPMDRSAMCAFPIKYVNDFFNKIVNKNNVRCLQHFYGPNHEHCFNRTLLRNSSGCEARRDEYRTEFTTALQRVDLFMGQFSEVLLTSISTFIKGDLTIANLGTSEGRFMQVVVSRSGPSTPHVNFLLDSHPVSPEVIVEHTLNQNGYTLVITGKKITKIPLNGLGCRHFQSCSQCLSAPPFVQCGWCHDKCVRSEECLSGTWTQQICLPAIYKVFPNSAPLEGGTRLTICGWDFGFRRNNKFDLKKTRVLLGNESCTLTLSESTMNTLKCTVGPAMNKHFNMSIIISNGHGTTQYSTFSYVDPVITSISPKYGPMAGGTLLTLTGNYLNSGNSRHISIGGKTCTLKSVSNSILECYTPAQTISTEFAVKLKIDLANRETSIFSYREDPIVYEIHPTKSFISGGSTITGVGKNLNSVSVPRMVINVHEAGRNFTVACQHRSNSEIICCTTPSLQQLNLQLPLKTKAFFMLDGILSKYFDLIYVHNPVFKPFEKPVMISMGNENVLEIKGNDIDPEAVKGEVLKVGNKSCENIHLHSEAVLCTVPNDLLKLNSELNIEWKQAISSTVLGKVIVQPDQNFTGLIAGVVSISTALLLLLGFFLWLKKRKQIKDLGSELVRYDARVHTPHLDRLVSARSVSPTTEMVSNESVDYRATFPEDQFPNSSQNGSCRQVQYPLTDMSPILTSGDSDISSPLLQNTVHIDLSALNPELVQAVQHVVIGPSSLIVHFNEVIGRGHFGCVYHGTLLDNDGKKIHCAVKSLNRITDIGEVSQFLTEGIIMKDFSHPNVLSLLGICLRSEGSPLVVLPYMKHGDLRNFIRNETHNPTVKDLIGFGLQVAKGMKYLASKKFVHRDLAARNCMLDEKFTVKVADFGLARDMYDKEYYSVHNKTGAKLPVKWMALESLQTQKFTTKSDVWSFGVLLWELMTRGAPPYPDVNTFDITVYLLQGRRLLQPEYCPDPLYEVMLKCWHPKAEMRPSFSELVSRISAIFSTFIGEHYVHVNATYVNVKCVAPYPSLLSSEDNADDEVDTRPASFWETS

With `COc1cc2nccc(OCc3nnc4ncc(-c5ccccc5)nn34)c2cc1OC` [II-17, 3-[(6,7-dimethoxy-4-quinolyl)oxymethyl]-6-phenyl-[1,2,4]triazolo[4,3-b][1,2,4]triazine], the concentration for half-maximal inhibition (IC50) in assay [1] came out at 2.9 nM. For the same molecule, the inhibition at 10 µM in assay [2] is 65.2%; in assay [3], 1.2%.
For `COC(=O)c1ccc(-c2cnc3nnc(COc4ccnc5cc(OC)c(OC)cc45)n3n2)cc1` [II-18, 3-[(6,7-dimethoxy-4-quinolyl)oxymethyl]-6-(4-methoxyformylphenyl)-[1,2,4]triazolo[4,3-b] [1,2,4]triazine], in assay [1], the IC50 worked out at 3.7 nM. Besides, in assay [2], the inhibition at 1 µM stood at 5.6%, the inhibition at 10 µM amounted to 22.9% and the inhibition at 50 µM stood at 82.6%. For the same molecule, in assay [3], the inhibition at 1 µM came out at 29.6%, the inhibition at 10 µM is 37.3% and the inhibition at 50 µM is 63.5%.
`COc1cc2nccc(OCc3nnc4ncc(-c5ccc(OCc6ccccc6)cc5)nn34)c2cc1OC` [II-19, 3-[(6,7-dimethoxy-4-quinolyl)oxymethyl]-6-(4-benzyloxyphenyl)-[1,2,4]triazolo[4,3-b][1,2,4] triazine]: in assay [1], half-maximal inhibition (IC50) required 0.3 nM. In addition, in assay [2], the inhibition at 1 µM came out at 6.55% and the inhibition at 50 µM is 97%. Besides, in assay [3], the inhibition at 1 µM worked out at 24.9%, the inhibition at 10 µM was found to be 31.1% and the inhibition at 50 µM amounted to 83.4%.
As for `COc1ccc2c(OCc3nnc4ncc(-c5ccc(Cl)c(Cl)c5)nn34)ccnc2c1` [II-20, 3-[(7-methoxy-4-quinolyl)oxymethyl]-6-(3,4-dichlorophenyl)-[1,2,4]triazolo[4,3-b][1,2,4] triazine], the IC50 in assay [1] was determined as 0.7 nM. In assay [2], the inhibition at 1 µM amounted to 78.7%, the inhibition at 10 µM is 89.4% and the inhibition at 50 µM was determined as 86.7%. Besides, in assay [3], the inhibition at 1 µM came out at 10.4%, the inhibition at 10 µM came to 22.5% and the inhibition at 50 µM came out at 21.4%.
The molecule `Fc1ccc(-c2cnc3nnc(COc4ccnc5ccccc45)n3n2)cc1` [II-21, 3-(4-quinolyloymethyl)-6-(4-fluorophenyl)-[1,2,4]triazolo[4,3-b][1,2,4]triazine] displayed an IC50 in assay [1] of 0.81 nM. Further, in assay [2], the inhibition at 1 µM came to 24.6%, the inhibition at 10 µM worked out at 81.4% and the inhibition at 50 µM is 84.3%. Also, in assay [3], the inhibition at 1 µM is 28.9%, the inhibition at 10 µM worked out at 53.9% and the inhibition at 50 µM stood at 57.5%.
Molecule `c1ccc(-c2cnc3nnc(COc4ccnc5ccccc45)n3n2)cc1` [II-22, 3-(4-quinolyloxymethyl)-6-phenyl-[1,2,4] triazolo[4,3-b][1,2,4]triazine] had a 50% inhibitory concentration (IC50) in assay [1] of 0.7 nM. In assay [2], the inhibition at 1 µM was found to be 63.9%, the inhibition at 10 µM amounted to 81.7% and the inhibition at 50 µM is 78.8%. In addition, in assay [3], the inhibition at 1 µM came to 38.6%, the inhibition at 10 µM amounted to 53.8% and the inhibition at 50 µM worked out at 48.1%.
In assay [1], `COc1ccc(-c2cnc3nnc(COc4ccnc5ccccc45)n3n2)cc1` [II-23, 3-(4-quinolyloxymethyl)-6-(4-methoxyphenyl)-[1,2,4]triazolo[4,3-b][1,2,4]triazine] came in with an IC50 of 0.88 nM. Also, in assay [2], the inhibition at 1 µM stood at 29%, the inhibition at 10 µM was 83.2% and the inhibition at 50 µM turned out to be 88.5%. In assay [3], the inhibition at 1 µM came out at 22.8%, the inhibition at 10 µM was determined as 49.8% and the inhibition at 50 µM was 31.3%.
In turn, `Oc1ccc(-c2cnc3nnc(COc4ccnc5ccccc45)n3n2)cc1` [II-24, 3-(4-quinolyloxymethyl)-6-(4-hydroxyphenyl)-[1,2,4]triazolo[4,3-b][1,2,4]triazine] returned a half-maximal inhibitory concentration (IC50) in assay [1] of 0.78 nM. In assay [2], the inhibition at 1 µM was determined as 5.3%, the inhibition at 10 µM was 53.1% and the inhibition at 50 µM came out at 70.6%. In assay [3], the inhibition at 1 µM came out at 17.1%, the inhibition at 10 µM came out at 25.1% and the inhibition at 50 µM is 28.4%.
For `COc1cccc(-c2cnc3nnc(COc4ccnc5ccccc45)n3n2)c1` [II-26, 3-(4-quinolyloxymethyl)-6-(3-methoxyphenyl)-[1,2,4]triazolo[4,3-b][1,2,4]triazine], the half-inhibitory concentration (IC50) in assay [1] came out at 1 nM. Moreover, in assay [2], the inhibition at 1 µM is 20.9%, the inhibition at 10 µM was 82.7% and the inhibition at 50 µM was found to be 83.9%. In assay [3], the inhibition at 1 µM stood at 36.8%, the inhibition at 10 µM is 58.7% and the inhibition at 50 µM came to 62.2%.
Regarding `Oc1cccc(-c2cnc3nnc(COc4ccnc5ccccc45)n3n2)c1` [II-27, 3-(4-quinolyloxymethyl)-6-(3-hydroxyphenyl)-[1,2,4]triazolo[4,3-b][1,2,4]triazine], the IC50 in assay [1] worked out at 0.88 nM. For the same molecule, in assay [2], the inhibition at 1 µM was 9.2%, the inhibition at 10 µM was determined as 72.6% and the inhibition at 50 µM turned out to be 80.7%. In assay [3], the inhibition at 1 µM is 18.3%, the inhibition at 10 µM came to 37.7% and the inhibition at 50 µM was 46%.
`COc1ccc2c(OCc3nnc4ncc(-c5cnn(C)c5)nn34)ccnc2c1` [II-29, 3-[(7-methoxy-4-quinolyl)oxymethyl]-6-[(1-methyl)-4-pyrazolo]-[1,2,4]triazolo[4,3-b][1,2,4] triazine] displayed a half-maximal inhibitory concentration (IC50) in assay [1] of 2.4 nM. In assay [2], the inhibition at 1 µM was found to be 87.4%, the inhibition at 10 µM was 88.2% and the inhibition at 50 µM was 91.9%. Further, in assay [3], the inhibition at 1 µM came out at 31.8%, the inhibition at 10 µM was determined as 32.9% and the inhibition at 50 µM was 50.9%.
In assay [1], `Cc1[nH]c(/C=C2\C(=O)Nc3ccc(S(=O)(=O)N(C)c4cccc(Cl)c4)cc32)c(C)c1C(=O)N1CCN(C)CC1` [SU11274, reference compound] showed an IC50 of 7.9 nM. In addition, in assay [2], the inhibition at 1 µM is 8.5%, the inhibition at 10 µM was 80.1% and the inhibition at 50 µM was determined as 88.7%. Also, in assay [3], the inhibition at 1 µM is 19.9%, the inhibition at 10 µM came out at 44.2% and the inhibition at 50 µM worked out at 70.6%.
